{"source": "the NIST ThermoML archive (doi:10.1016/j.jct.2006.10.008)", "key": {"[1]": {"experiment": "excess molar enthalpy (molar enthalpy of mixing); xn = mol fraction of the nth substance listed", "details": "298.15 K, 101 kPa, Liquid, Calvet calorimetry"}, "[2]": {"experiment": "xn = mol fraction of the nth substance listed", "details": "298.15 K, 101 kPa, Liquid"}}, "note": "Numbers after ± are expanded uncertainties."}
{"smiles": "ClCCCCl", "note": "[1,3-dichloropropane] + CCOC=O", "values": [{"measurement": "excess molar enthalpy", "setting": "[1]; x2 = 0.1171", "value": "0.00817 ± 0.000263", "unit": "kcal/mol"}, {"measurement": "excess molar enthalpy", "setting": "[1]; x2 = 0.2311", "value": "0.0165 ± 0.000311", "unit": "kcal/mol"}, {"measurement": "excess molar enthalpy", "setting": "[1]; x2 = 0.3403", "value": "0.0202 ± 0.000335", "unit": "kcal/mol"}, {"measurement": "excess molar enthalpy", "setting": "[1]; x2 = 0.435", "value": "0.0196 ± 0.000335", "unit": "kcal/mol"}, {"measurement": "excess molar enthalpy", "setting": "[1]; x2 = 0.5147", "value": "0.0165 ± 0.000311", "unit": "kcal/mol"}, {"measurement": "excess molar enthalpy", "setting": "[1]; x2 = 0.5813", "value": "0.0124 ± 0.000287", "unit": "kcal/mol"}, {"measurement": "excess molar enthalpy", "setting": "[1]; x2 = 0.6354", "value": "0.00894 ± 0.000263", "unit": "kcal/mol"}, {"measurement": "excess molar enthalpy", "setting": "[1]; x2 = 0.682", "value": "0.00588 ± 0.000239", "unit": "kcal/mol"}, {"measurement": "excess molar enthalpy", "setting": "[1]; x2 = 0.7186", "value": "0.00296 ± 0.000215", "unit": "kcal/mol"}, {"measurement": "excess molar enthalpy", "setting": "[1]; x2 = 0.7381", "value": "-0.0037 ± 0.000215", "unit": "kcal/mol"}, {"measurement": "excess molar enthalpy", "setting": "[1]; x2 = 0.7773", "value": "-0.00679 ± 0.000239", "unit": "kcal/mol"}, {"measurement": "excess molar enthalpy", "setting": "[1]; x2 = 0.8208", "value": "-0.0092 ± 0.000263", "unit": "kcal/mol"}, {"measurement": "excess molar enthalpy", "setting": "[1]; x2 = 0.8622", "value": "-0.0105 ± 0.000263", "unit": "kcal/mol"}, {"measurement": "excess molar enthalpy", "setting": "[1]; x2 = 0.9018", "value": "-0.00858 ± 0.000263", "unit": "kcal/mol"}, {"measurement": "excess molar enthalpy", "setting": "[1]; x2 = 0.9383", "value": "-0.00452 ± 0.000215", "unit": "kcal/mol"}, {"measurement": "excess molar enthalpy", "setting": "[1]; x2 = 0.9723", "value": "-0.000287 ± 0.000191", "unit": "kcal/mol"}, {"measurement": "mass density", "setting": "[2]; x2 = 0.0758", "value": "1161.82 ± 0.64", "unit": "kg/m3"}, {"measurement": "mass density", "setting": "[2]; x2 = 0.1392", "value": "1147.48 ± 0.62", "unit": "kg/m3"}, {"measurement": "mass density", "setting": "[2]; x2 = 0.2059", "value": "1132.04 ± 0.58", "unit": "kg/m3"}, {"measurement": "mass density", "setting": "[2]; x2 = 0.2686", "value": "1117.5 ± 0.56", "unit": "kg/m3"}, {"measurement": "mass density", "setting": "[2]; x2 = 0.336", "value": "1101.45 ± 0.52", "unit": "kg/m3"}, {"measurement": "mass density", "setting": "[2]; x2 = 0.3983", "value": "1086.31 ± 0.49", "unit": "kg/m3"}, {"measurement": "mass density", "setting": "[2]; x2 = 0.4584", "value": "1071.44 ± 0.46", "unit": "kg/m3"}, {"measurement": "mass density", "setting": "[2]; x2 = 0.5183", "value": "1056.42 ± 0.43", "unit": "kg/m3"}, {"measurement": "mass density", "setting": "[2]; x2 = 0.5752", "value": "1041.98 ± 0.41", "unit": "kg/m3"}, {"measurement": "mass density", "setting": "[2]; x2 = 0.6319", "value": "1027.35 ± 0.38", "unit": "kg/m3"}, {"measurement": "mass density", "setting": "[2]; x2 = 0.6884", "value": "1012.54 ± 0.35", "unit": "kg/m3"}, {"measurement": "mass density", "setting": "[2]; x2 = 0.7433", "value": "997.87 ± 0.33", "unit": "kg/m3"}, {"measurement": "mass density", "setting": "[2]; x2 = 0.7967", "value": "983.56 ± 0.34", "unit": "kg/m3"}, {"measurement": "mass density", "setting": "[2]; x2 = 0.849", "value": "969.23 ± 0.36", "unit": "kg/m3"}, {"measurement": "mass density", "setting": "[2]; x2 = 0.9005", "value": "954.87 ± 0.38", "unit": "kg/m3"}, {"measurement": "mass density", "setting": "[2]; x2 = 0.949", "value": "941.1 ± 0.39", "unit": "kg/m3"}]}
{"smiles": "CCCCCOC=O", "note": "[pentyl methanoate] + ClCCCCCCl", "values": [{"measurement": "excess molar enthalpy", "setting": "[1]; x1 = 0.0613", "value": "-0.00304 ± 0.000215", "unit": "kcal/mol"}, {"measurement": "excess molar enthalpy", "setting": "[1]; x1 = 0.141", "value": "-0.00758 ± 0.000239", "unit": "kcal/mol"}, {"measurement": "excess molar enthalpy", "setting": "[1]; x1 = 0.2146", "value": "-0.0133 ± 0.000287", "unit": "kcal/mol"}, {"measurement": "excess molar enthalpy", "setting": "[1]; x1 = 0.2884", "value": "-0.0206 ± 0.000359", "unit": "kcal/mol"}, {"measurement": "excess molar enthalpy", "setting": "[1]; x1 = 0.3563", "value": "-0.0273 ± 0.000406", "unit": "kcal/mol"}, {"measurement": "excess molar enthalpy", "setting": "[1]; x1 = 0.4177", "value": "-0.0314 ± 0.00043", "unit": "kcal/mol"}, {"measurement": "excess molar enthalpy", "setting": "[1]; x1 = 0.4725", "value": "-0.0349 ± 0.000454", "unit": "kcal/mol"}, {"measurement": "excess molar enthalpy", "setting": "[1]; x1 = 0.5239", "value": "-0.0355 ± 0.000454", "unit": "kcal/mol"}, {"measurement": "excess molar enthalpy", "setting": "[1]; x1 = 0.5551", "value": "-0.0363 ± 0.000478", "unit": "kcal/mol"}, {"measurement": "excess molar enthalpy", "setting": "[1]; x1 = 0.6165", "value": "-0.0347 ± 0.000454", "unit": "kcal/mol"}, {"measurement": "excess molar enthalpy", "setting": "[1]; x1 = 0.6887", "value": "-0.0321 ± 0.00043", "unit": "kcal/mol"}, {"measurement": "excess molar enthalpy", "setting": "[1]; x1 = 0.7706", "value": "-0.0272 ± 0.000406", "unit": "kcal/mol"}, {"measurement": "excess molar enthalpy", "setting": "[1]; x1 = 0.8586", "value": "-0.0187 ± 0.000335", "unit": "kcal/mol"}, {"measurement": "excess molar enthalpy", "setting": "[1]; x1 = 0.9347", "value": "-0.00997 ± 0.000263", "unit": "kcal/mol"}, {"measurement": "mass density", "setting": "[2]; x1 = 0.0607", "value": "1082.26 ± 0.49", "unit": "kg/m3"}, {"measurement": "mass density", "setting": "[2]; x1 = 0.1185", "value": "1069.95 ± 0.46", "unit": "kg/m3"}, {"measurement": "mass density", "setting": "[2]; x1 = 0.1761", "value": "1057.7 ± 0.44", "unit": "kg/m3"}, {"measurement": "mass density", "setting": "[2]; x1 = 0.2336", "value": "1045.52 ± 0.41", "unit": "kg/m3"}, {"measurement": "mass density", "setting": "[2]; x1 = 0.2924", "value": "1033.04 ± 0.39", "unit": "kg/m3"}, {"measurement": "mass density", "setting": "[2]; x1 = 0.3501", "value": "1020.86 ± 0.36", "unit": "kg/m3"}, {"measurement": "mass density", "setting": "[2]; x1 = 0.4661", "value": "996.38 ± 0.33", "unit": "kg/m3"}, {"measurement": "mass density", "setting": "[2]; x1 = 0.5254", "value": "983.92 ± 0.34", "unit": "kg/m3"}, {"measurement": "mass density", "setting": "[2]; x1 = 0.6434", "value": "959.15 ± 0.37", "unit": "kg/m3"}, {"measurement": "mass density", "setting": "[2]; x1 = 0.7028", "value": "946.7 ± 0.39", "unit": "kg/m3"}, {"measurement": "mass density", "setting": "[2]; x1 = 0.7612", "value": "934.48 ± 0.4", "unit": "kg/m3"}, {"measurement": "mass density", "setting": "[2]; x1 = 0.8194", "value": "922.34 ± 0.41", "unit": "kg/m3"}, {"measurement": "mass density", "setting": "[2]; x1 = 0.8788", "value": "909.95 ± 0.43", "unit": "kg/m3"}, {"measurement": "mass density", "setting": "[2]; x1 = 0.9368", "value": "897.88 ± 0.44", "unit": "kg/m3"}]}
